Data published in article PMC5326799, “Discovery of Compounds that Positively Modulate the High Affinity Choline Transporter” (Frontiers in Molecular Neuroscience, 2017).
Entries after “also recorded” stand apart in the source; their conditions may differ. Where two headings read alike, the source gives them in different places.

Key:
[1] = target: T1, high affinity choline transporter (CHT) (Homo sapiens, UniProt Q9GZV3); assay: Radiometric [3H]Choline uptake assay (scintillation proximity) in HEK cells expressing CHT; assay type: cell-based; conditions: for CHT modulator classification in radiometric assay: single point 1 and 10 μM, actives in 10-point dose response; for 3H-choline uptake % effect 1 μM: 1 μM compound; for 3H-choline uptake % effect 1 μM / 3H-choline uptake % effect 10 μM: 100% = 10 μM Staurosporine, 0% = DMSO; for 3H-choline uptake % effect 10 μM: 10 μM compound
T1 construct: expressed in transfected cells; host or cells: HEK-293, lentiviral transduction, single-cell clone CHT-WT4
T1 sequence (Q9GZV3 1-580): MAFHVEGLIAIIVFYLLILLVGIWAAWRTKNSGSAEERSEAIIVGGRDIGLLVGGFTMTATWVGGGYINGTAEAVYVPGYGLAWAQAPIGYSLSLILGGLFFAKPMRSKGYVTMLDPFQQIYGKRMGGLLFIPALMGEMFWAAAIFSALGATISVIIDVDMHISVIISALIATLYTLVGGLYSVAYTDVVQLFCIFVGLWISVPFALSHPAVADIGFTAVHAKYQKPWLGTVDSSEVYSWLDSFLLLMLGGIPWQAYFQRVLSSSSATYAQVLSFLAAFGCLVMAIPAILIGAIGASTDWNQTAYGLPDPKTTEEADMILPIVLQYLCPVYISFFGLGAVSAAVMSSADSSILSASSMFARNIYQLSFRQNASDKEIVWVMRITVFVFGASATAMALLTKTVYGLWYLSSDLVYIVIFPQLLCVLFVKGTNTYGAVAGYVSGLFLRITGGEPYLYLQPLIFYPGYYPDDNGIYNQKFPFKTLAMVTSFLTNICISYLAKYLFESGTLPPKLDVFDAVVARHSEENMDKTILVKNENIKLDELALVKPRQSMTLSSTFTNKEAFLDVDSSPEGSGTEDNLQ
Description: Uptake of [^3H]Choline (American Radiochemicals; ART 0197; 1,000 Ci/vial; Specific Activity 60–90 Ci/mmol) was measured in HEK cells expressing the high affinity choline transporter (CHT), clone WT4. Cells were plated at 50,000 cells /well in 200 μL culture media on a PDL coated Cytostar-T 96 well plate (Perkin Elmer) 24 h prior to assay. On the day of assay, following two washes and a 30 min pre-incubation at 37°C in 50 μL Na(−) free buffer (0.54 mM KCl, 1.3 mM CaCl2, 0.53 mM MgCl2, 0.4 mM MgSO4, 0.37 mM KH2PO4, 240 mM Sucrose, 4.4 mM Tris-phosphate, 5.5 mM Glycine, 5.6 mM D-Glucose; pH 6.5 with KOH), 25 μL 4X control or test compounds in Na(−) buffer were added to the cells. […] Final DMSO concentration was 0.25%. Following a 30 min incubation at 37°C, 25 μL [^3H]Choline diluted to 320 nM (80 nM final concentration) was added in Na(+) buffer (0.54 mM KCl, 1.3 mM CaCl2, 0.53 mM MgCl2, 0.4 mM MgSO4, 0.37 mM KH2PO4, 138 mM NaCl, 0.28 mM Na2HPO4, 5.5 mM Glycine, 5.6 mM D-Glucose; pH 6.5 with KOH). Plates were sealed with TopSeals (Perkin Elmer) and incubated in darkness for 3 h at room temperature before reading using a Wallac Microbeta, 1 min/well.
(§1) A preponderance of literature precedent for measuring high affinity choline uptake (HACU) utilizes a radiometric assay to measure [^3H]Choline transport in preparations. […] A number of parameters were assessed in assay development including cell seeding density, time of assay post-seeding, plate coating, buffer composition, read time and choline concentration.

CHT [2] = target: T2, CHT (Homo sapiens, UniProt Q9GZV3); conditions: for D9-choline uptake % effect 1 μM: 1 μM compound; for D9-choline uptake % effect 1 μM / D9-choline uptake % effect 10 μM: HEK293 CHT-WT4, DMSO negative control, 10 μM STS positive control; for D9-choline uptake % effect 10 μM: 10 μM compound
T2 sequence (Q9GZV3 1-580): T1 sequence (Q9GZV3 1-580)

CHT [3] = target: T2, CHT; assay: cell-based
CHT [4] = target: T2, CHT; assay: Live cell anti-FLAG immunolabeling of CHT cell surface localization in CHT-WT4 cells; assay type: cell-based; parameters: expressed in transfected cells; host or cells: HEK-293, lentiviral transduction, single-cell clone CHT-WT4; conditions: 1 or 10 μM for 1 h, qualitative observations
Description: Media was removed and cells were washed once with HBSS (+/+). 1 μg/mL Anti-FLAG antibody (F3165, Sigma) was diluted in HBSS (+/+) and added to the cellular monolayer for 30 mins. After incubation, cells were washed three times with HBSS (+/+) followed by incubation with 1:5,000 AF488 labeled secondary antibody (LifeTech) diluted in HBSS (+/+) for 30 min. After three washes, cells were fixed with 4% paraformaldehyde in HBSS (+/+) for 15 min. Nuclei were counterstained with the nuclear dye Hoechst. All images were captured and analyzed on an epifluorescent microsope or Cellomics platform.
Thus, understanding compound effects on CHT density and activation state in the synaptic membrane may aid interpretation of the effects on cholinergic neurotransmission. Conventional methods such as cell surface biotinylation present challenges in terms of the requirement of large quantities of cells and low throughput. […] Our CHT overexpression construct contains a FLAG tag on the N-terminus which we sought to utilize with antibody detection in non-permeabilized cells. […] We proceeded to investigate the effect of compound treatment in more detail. Cells were incubated with compounds at 1 or 10 μM for 1 h before immunolabeling and visualization.

SK-N-FI cell line = assay: [3H]Choline uptake in untransformed SK-N-FI cell line; assay type: cell-based; conditions: 1 μM HC-3, 10 μM STS
From the text: (§2) Supplementary file Image1.JPEG: Supplementary Figure 1 [^3H] […] Click here for additional data file.

[5] = target: high affinity choline transporter (CHT); parameters: method as in earlier work; conditions: ref Okuda and Haga, 2000, Okuda et al., cited from earlier work
CHT [6] = target: T2, CHT; assay: SURFE2R solid supported membrane (SSM) electrophysiology on CHT-WT4 membrane fragments; assay type: biochemical; parameters: expressed in transfected cells; host or cells: HEK-293, lentiviral transduction, single-cell clone CHT-WT4
Description: A single cell clone of HEK293 overexpressing CHT (CHT-WT4) cells was used to generate membrane fragments to assess on the SURFE^2R platform. Cells were grown to 80% confluence and harvested. The membrane fraction was collected by ultracentrifugation and the plasma membranes were isolated by density gradient centrifugation (Schulz et al., [2008]).
All experiments were performed on the SURFE^2R N1 device and the matching N1 sensor blanks (Nanion Technologies GmbH, Munich). The sensor blanks include a 3 mm diameter gold surface inside a small well coated by incubating 50 μL of 0.5 mM 1-octadecanethiol dissolved in isopropanol for 30 min, rinsed once with isopropanol and twice with water (ddH2O) and dried for 30 min at room temperature.
7.5 μg/μL DPhPC (Avanti Polar Lipids) was dissolved in n-Decane. 1.5 μL were added onto the thiol-coated gold surface. Immediately, 80 μL of potassium buffer was added carefully. The CHT membrane preparation was diluted 1:10 with potassium buffer and sonicated. Eight microliter were added directly onto the SSM by submerging the pipette into the buffer and the sensors were centrifuged for 30 min at 2,200 × g. The quality of the SSM was controlled by determination of conductance σ and capacitance C. The SURFE^2R N1 device includes default functions to perform these measurements. Sensors should have a conductance below 3 nS and capacitance below 20 nF.
Prepared sensors were inserted into the faraday cage of the SURFE^2R N1 device and buffers applied via its automatic perfusion system, allowing rapid buffer exchange in a continuous liquid flow. The following buffer addition sequence was used for all experiments: Sodium buffer was applied for 2 s with a flow rate of 200 μl/s to establish a sodium gradient over the membrane. […] During those 6 s the current response was recorded. […]
Raw data were exported as ASCII files, analysis was performed using the scientific graphing and data analysis program IGOR Pro 6 (WaveMetrics, Portland, USA). The evaluated peak currents were determined using a peak detection algorithm. […]

SH-SY5Y cell line = assay: [3H]Choline uptake in untransformed SH-SY5Y cell line; assay type: cell-based; conditions: 1 μM HC-3, 10 μM STS
From the text: as §2

[7] = target: T1, high affinity choline transporter (CHT); assay: Radiometric [3H]Choline uptake assay (scintillation proximity) in HEK cells expressing CHT; assay type: cell-based; conditions: HEK293, read-out: % inhibition of [3H]Choline uptake by HC-3, 1 μM
SH-SY5Y cells = assay: Radiometric CHT transport in SH-SY5Y cell backgrounds; assay type: cell-based; conditions: potentiation could not be demonstrated
Description: as §1

[8] = EC50 estimate, [3H]Choline uptake (positive modulators), CHT-WT4 cells, 10-point dose response
[9] = PAM compounds, 10-point dose response, HEK293 CHT-WT4, n.d. = not detected, read-out: 3H-choline uptake IC50 or EC50
[10] = 3H-choline uptake IC50 or EC50(M), PAM compounds, 10-point dose response, HEK293 CHT-WT4, n.d. = not detected
[11] = inhibitor/NAM compounds, 10-point dose response, HEK293 CHT-WT4, read-out: 3H-choline uptake IC50 or EC50

In the case of `O=C(CC1=CCCCC1)Nc1ccnc2ccccc12` [Compound 1], the EC50 [1, 8] is reported as 3e-07 M, the EC50 [1, 9] is reported as 2.75e-07 M and the “CHT modulator classification in radiometric assay” value (shortened to “CHT modulator classification”) [1] is reported as “positive allosteric CHT modulators”.
In the case of `O=C(Cn1c(=O)oc2ccccc21)Nc1ccnc2ccccc12` [Compound 2], the EC50 [1, 8] is reported as 4e-07 M, the EC50 [1, 9] is reported as 4.16e-07 M and the “CHT modulator classification” value [1] is reported as “positive allosteric CHT modulators”.
For `NC(=O)N1C(=O)C(C(=O)Cc2ccccc2)c2cc(F)ccc21` (centres unmarked) [Compound 3], the EC50 [1, 10] was 4.51e-06 M, the EC50 [1, 8] was 4.5e-06 M and the “CHT modulator classification” value [1] was “positive allosteric CHT modulators”.
With `O=C(NCc1ccc(Cl)cc1)c1ccc2snc(N3CCNCC3)c2c1` [Compound 4] the IC50 [1, 11] was 1540 nM, the “CHT modulator classification” value [1] was “negative allosteric modulators” and the “D9-choline uptake % effect 1 μM” value (CHT [2]) was 12.3%. The “D9-choline uptake % effect 10 μM” value (CHT [2]) was 118.1% and the IC50 (CHT [3]) was 3130 nM.
In the case of `O=C(NCc1ccc(Cl)cc1)c1cn2c(N3CCNCC3)nccc2n1` [Compound 5], the IC50 [1, 11] is reported as 670 nM and the “CHT modulator classification” value [1] is reported as “negative allosteric modulators”.
In the case of `CNC(=O)C1CCCN1c1nc(Cc2ccccc2F)cc(Nc2cc(C3CC3)[nH]n2)n1` (centres unmarked) [Compound 6], the “3H-choline uptake % effect 1 μM” value ([1]; HEK293 CHT-WT4) is reported as 3.6%, the “3H-choline uptake % effect 10 μM” value ([1]; HEK293 CHT-WT4) is reported as 23.6% and the “D9-choline uptake % effect 1 μM” value (CHT [2]) is reported as 60.8%. For the same compound, the “D9-choline uptake % effect 10 μM” value (CHT [2]) was 91.6%, the “Effect on cell surface localization of CHT” value (“Effect … of CHT” below) (CHT [4]) was “no effects; also recorded: no apparent effect” and the EC50 (CHT [3]) was 2050 nM.
For `CNC(=O)C1CCC(Nc2nc(Nc3ccc(S(C)(=O)=O)cc3)ncc2C(F)(F)F)C1` (centres unmarked) [Compound 7], the “3H-choline uptake % effect 1 μM” value ([1]; HEK293 CHT-WT4) was −2.4%, the “3H-choline uptake % effect 10 μM” value ([1]; HEK293 CHT-WT4) was 26.7% and the “D9-choline uptake % effect 1 μM” value (CHT [2]) was 46.4%. For the same compound, the “D9-choline uptake % effect 10 μM” value (CHT [2]) was 80.8%, the “Effect … of CHT” value (CHT [4]) was “no effects; also recorded: no apparent effect” and the EC50 (CHT [3]) was 2490 nM.
In the case of `N#Cc1c[nH]c2ncnc(N3CCC4(CC3)CNCc3ccc(C(F)(F)F)nc34)c12` [Compound 8], the “3H-choline uptake % effect 1 μM” value ([1]; HEK293 CHT-WT4) is reported as 9.0%, the “3H-choline uptake % effect 10 μM” value ([1]; HEK293 CHT-WT4) is reported as 52.6% and the “D9-choline uptake % effect 1 μM” value (CHT [2]) is reported as 24.5%. For the same compound, the “D9-choline uptake % effect 10 μM” value (CHT [2]) was 80.2%, the “Effect … of CHT” value (CHT [4]) was “increased cell surface localization; also recorded: distinct increase in apparent cell surface localization” and the EC50 (CHT [3]) was 5100 nM.
In the case of `Cn1ncc2nc(-c3ccnc(N)c3)nc(N3CCNCC3(C)C)c21` [Compound 9], the “3H-choline uptake % effect 1 μM” value ([1]; HEK293 CHT-WT4) is reported as 24.4%, the “3H-choline uptake % effect 10 μM” value ([1]; HEK293 CHT-WT4) is reported as 100.0% and the “D9-choline uptake % effect 1 μM” value (CHT [2]) is reported as 30.5%. The “D9-choline uptake % effect 10 μM” value (CHT [2]) was 64.0%, the “Effect … of CHT” value (CHT [4]) was “increased cell surface localization; also recorded: distinct increase in apparent cell surface localization” and the EC50 (CHT [3]) was 5760 nM.
For `C[N+]1(C)CCOC(O)(c2ccc(-c3ccc(C4(O)C[N+](C)(C)CCO4)cc3)cc2)C1` (centres unmarked) [HC-3, hemicholinium-3, reference compound], the “Effect on [3H]Choline uptake” value (SK-N-FI cell line) is listed as “No effect”, the Ki ([5]; Apparsundaram et al., 2001, read-out: Ki, inhibition of choline uptake) is listed as 1 to 5 nM and the IC50 (CHT [6]) is listed as 20.4 nM. For the same compound, the IC50 [1] was 116 nM, the inhibition at 1 µM ([1]; HEK293, read-out: % inhibition of [3H]Choline uptake by HC-3, 1 μM, CHT-WT4 clone) was roughly 80% and the “Effect on [3H]Choline uptake” value (SH-SY5Y cell line) was “No effect”. For the same compound, the “Effect … of CHT” value (CHT [4]) was “increase in cell surface localization; also recorded: increase transporter density on the cell surface”, the inhibition at 1 µM ([7]; CHT-WT5 clone) was roughly 61% and the inhibition at 1 µM ([7]; CHT-WT Pool) was roughly 69%. It also gave an IC50 (CHT [3]) of 5.6 nM.
For `Cc1oc2nc3c(c(NC(=O)CN4CCCC4=O)c2c1C)CCCC3` [MKC-231, coluracetam, reference compound], the “Effect on CHT current (SURFE2R)” value (CHT [6]; CHT-WT4 membrane preparations) was “not able to detect any effect”, the “Impact on CHT mediated transport, [3H]Choline uptake” value ([1]; CHT-WT4 cells, 10-point dose response) was “unable to see any impact” and the “Impact on CHT mediated transport, [3H]Choline uptake” value ([1]; CHT-WT4 cells, 10-point dose response, listed as MKC231) was “no apparent effect”. The “Effect on D9-choline uptake” value (CHT [2]; 10-point dose response) was “no apparent effect” and the “Effect … of CHT” value (CHT [4]) was “no apparent effect”.
With `COc1ccc(C(=O)NCc2cc(C(C)C)no2)cc1OC1CCN(C)CC1` [ML-352, reference compound] the “D9-choline uptake % effect 1 μM” value (CHT [2]) was 96.3%, the “D9-choline uptake % effect 10 μM” value (CHT [2]) was 104.1% and the “Effect … of CHT” value (CHT [4]) was “increase in cell surface localization; also recorded: increase transporter density on the cell surface”.
In the case of `CN[C@@H]1C[C@H]2O[C@@](C)([C@@H]1OC)n1c3ccccc3c3c4c(c5c6ccccc6n2c5c31)C(=O)NC4` [STS, staurosporine], the “Effect on [3H]Choline uptake” value (SK-N-FI cell line) is reported as “No effect”, the EC50 [1, 10] is reported as 1.7e-06 M and the “Effect on [3H]Choline uptake” value (SH-SY5Y cell line) is reported as “No effect”. The “Potentiation of CHT transport in SH-SY5Y cell backgrounds” value (SH-SY5Y cells) was “toxicity” and the EC50 (CHT [3]) was 507 nM.
For `C[N+](C)(C)CCO` [choline, Choline Chloride], the Km ([5]; Apparsundaram et al., 2001, read-out: Km, high-affinity sodium-dependent choline uptake) is given as roughly 2 µM and the EC50 (CHT [6]) is given as 25000 nM.
